Results: US20170334899A1, “AMINO-SUBSTITUTED ISOTHIAZOLES” (Bayer Pharma Aktiengesellschaft, priority 2014, published 2017)
pIC50: −log10 of the molar value.

tested on: HeLa; experiment: Proliferation assay (crystal violet), HeLa; format: cell-based; details: Homo sapiens, HeLa, 96 h, HeLa cells; 4 days incubation; crystal violet staining; read-out: IC50 inhibition of proliferation, HeLa
Summary of the method: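 Absorbance at 595 nm of crystal-violet-stained cells after 4 days' exposure to 0.001–10 μM compound (0.5% DMSO). Values normalized to a day-0 plate (0%) and untreated cells (100%); IC50 by 4-parameter fit.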

Row | pIC50 | Compound
1 | 6.18 | Cc1nsc(Nc2cc(C#N)ccn2)c1C(=O)Nc1ccc(C(=O)OC(C)(C)C)cc1 [Example 182, tert-butyl 4-[({5-[(4-cyanopyridin-2-yl)amino]-3-methyl-1,2-thiazol-4-yl}carbonyl)amino]benzoate]
2 | < 5.00 | CNC(=O)c1ccc(NC(=O)c2c(C)nsc2Nc2cnc3ccccc3n2)cc1F [Example 207, N-[3-fluoro-4-(methylcarbamoyl)phenyl]-3-methyl-5-(quinoxalin-2-ylamino)-1,2-thiazole-4-carboxamide]
3 | 5.39 | Cc1nsc(Nc2cnc3ccccc3n2)c1C(=O)Nc1ccc(NCCC(=O)OC(C)(C)C)nc1 [Example 236, tert-butyl N-[5-({[3-methyl-5-(quinoxalin-2-ylamino)-1,2-thiazol-4-yl]carbonyl}amino)pyridin-2-yl]-beta-alaninate]
4 | 5.68 | COc1ccc(NC(=O)c2c(C)nsc2Nc2cnc3ccccc3n2)c(CC#N)n1 [Example 235, N-[2-(cyanomethyl)-6-methoxypyridin-3-yl]-3-methyl-5-(quinoxalin-2-ylamino)-1,2-thiazole-4-carboxamide]
5 | < 5.00 | Cc1nsc(Nc2cc(C#N)ccn2)c1C(=O)Nc1ccc(NC(=O)OC(C)(C)C)cc1 [Example 177, tert-butyl {4-[({5-[(4-cyanopyridin-2-yl)amino]-3-methyl-1,2-thiazol-4-yl}carbonyl)amino]phenyl}carbamate]
6 | 5.96 | Cc1nsc(Nc2cc(C#N)ccn2)c1C(=O)Nc1cccc(C(=O)OC(C)(C)C)c1 [Example 239, tert-butyl 3-[({5-[(4-cyanopyridin-2-yl)amino]-3-methyl-1,2-thiazol-4-yl}carbonyl)amino]benzoate]
7 | 5.46 | Cc1nsc(Nc2cnc3ccccc3n2)c1C(=O)Nc1ccc(OC2CCNCC2)nc1 [Example 19, 3-Methyl-N-[6-(piperidin-4-yloxy)pyridin-3-yl]-5-(quinoxalin-2-ylamino)-1,2-thiazole-4-carboxamide]
8 | < 5.00 | Cc1nsc(Nc2cnc3ccccc3n2)c1C(=O)Nc1ccc(NC(=O)C(C)(C)C)cc1 [Example 185, N-{4-[(2,2-dimethylpropanoyl)amino]phenyl}-3-methyl-5-(quinoxalin-2-ylamino)-1,2-thiazole-4-carboxamide]
9 | 6.16 | Cc1nsc(Nc2cncc(C(F)(F)F)n2)c1C(=O)Nc1ccc(OC2CCN(CC(F)(F)F)CC2)nc1 [Example 16, 3-Methyl-N-(6-{[1-(2,2,2-trifluoroethyl)piperidin-4-yl]oxy}pyridin-3-yl)-5-{[6-(trifluoromethyl)pyrazin-2-yl]amino}-1,2-thiazole-4-carboxamide]
10 | 6.28 | Cc1nsc(Nc2cncc(C(F)(F)F)n2)c1C(=O)Nc1ccc(OCCNC(=O)OC(C)(C)C)c(F)c1 [Example 216, tert-butyl [2-(2-fluoro-4-{[(3-methyl-5-{[6-(trifluoromethyl)pyrazin-2-yl]amino}-1,2-thiazol-4-yl)carbonyl]amino}phenoxy)ethyl]carbamate]
11 | 5.29 | CC(=O)Nc1cc(NC(=O)c2c(C)nsc2Nc2cnc(C(F)(F)F)cn2)ccc1F [Example 206, N-(3-acetamido-4-fluorophenyl)-3-methyl-5-{[5-(trifluoromethyl)pyrazin-2-yl]amino}-1,2-thiazole-4-carboxamide]
12 | 5.19 | Cc1nsc(Nc2cnc3ccccc3n2)c1C(=O)Nc1cccc(NC(=O)C(C)(C)C)c1 [Example 186, N-{3-[(2,2-dimethylpropanoyl)amino]phenyl}-3-methyl-5-(quinoxalin-2-ylamino)-1,2-thiazole-4-carboxamide]
13 | 5.92 | Cc1nsc(Nc2cnc(C(F)(F)F)cn2)c1C(=O)Nc1ccc(OCCNC(=O)OC(C)(C)C)nc1 [Example 192, tert-butyl {2-[(5-{[(3-methyl-5-{[5-(trifluoromethyl)pyrazin-2-yl]amino}-1,2-thiazol-4-yl)carbonyl]amino}pyridin-2-yl)oxy]ethyl}carbamate]
14 | 5.51 | Cc1nsc(Nc2cnc(C(F)(F)F)cn2)c1C(=O)Nc1cccc(S(C)(=O)=O)c1 [Example 195, 3-methyl-N-[3-(methylsulfonyl)phenyl]-5-{[5-(trifluoromethyl)pyrazin-2-yl]amino}-1,2-thiazole-4-carboxamide]
15 | 5.00 | Cc1nsc(Nc2cncc(C(F)(F)F)n2)c1C(=O)Nc1ccc(OC2CCN(C(C)C)CC2)nc1 [Example 218, N-{6-[(1-isopropylpiperidin-4-yl)oxy]pyridin-3-yl}-3-methyl-5-{[6-(trifluoromethyl)pyrazin-2-yl]amino}-1,2-thiazole-4-carboxamide]
16 | < 5.00 | Cc1nsc(Nc2cnc3ccccc3n2)c1C(=O)Nc1ccc(F)c(C(N)=O)c1 [Example 202, N-(3-carbamoyl-4-fluorophenyl)-3-methyl-5-(quinoxalin-2-ylamino)-1,2-thiazole-4-carboxamide]

Row | pIC50 | Compound
17 | 6.12 | Cc1nsc(Nc2ccc(C#N)cn2)c1C(=O)Nc1cccc(C(=O)OC(C)(C)C)c1 [Example 240, tert-butyl 3-[({5-[(5-cyanopyridin-2-yl)amino]-3-methyl-1,2-thiazol-4-yl}carbonyl)amino]benzoate]
18 | < 5.00 | Cc1nsc(Nc2ccc(C#N)cn2)c1C(=O)Nc1cccc(N)c1 [Example 180, N-(3-aminophenyl)-5-[(5-cyanopyridin-2-yl)amino]-3-methyl-1,2-thiazole-4-carboxamide]
19 | 5.22 | CNC(=O)c1ccc(NC(=O)c2c(C)nsc2Nc2ccc(C#N)cn2)cc1F [Example 208, 5-[(5-cyanopyridin-2-yl)amino]-N-[3-fluoro-4-(methylcarbamoyl)phenyl]-3-methyl-1,2-thiazole-4-carboxamide]
20 | 5.80 | Cc1nsc(Nc2cncc(C(F)(F)F)n2)c1C(=O)Nc1ccc(OCCNC(=O)OC(C)(C)C)nc1 [Example 191, tert-butyl {2-[(5-{[(3-methyl-5-{[6-(trifluoromethyl)pyrazin-2-yl]amino}-1,2-thiazol-4-yl)carbonyl]amino}pyridin-2-yl)oxy]ethyl}carbamate]
21 | < 5.00 | Cc1nsc(Nc2cncc(C(F)(F)F)n2)c1C(=O)Nc1ccc(OC2CCN(C)CC2)nc1 [Example 219, 3-methyl-N-{6-[(1-methylpiperidin-4-yl)oxy]pyridin-3-yl}-5-{[6-(trifluoromethyl)pyrazin-2-yl]amino}-1,2-thiazole-4-carboxamide]
22 | 6.12 | Cc1nsc(Nc2cncc(C(F)(F)F)n2)c1C(=O)Nc1ccc(OC2CCN(CCF)CC2)c(F)c1 [Example 223, N-(3-fluoro-4-{[1-(2-fluoroethyl)piperidin-4-yl]oxy}phenyl)-3-methyl-5-{[6-(trifluoromethyl)pyrazin-2-yl]amino}-1,2-thiazole-4-carboxamide]
23 | 5.02 | Cc1nsc(Nc2cnc3ccccc3n2)c1C(=O)Nc1ccc(NC2CCN(C(=O)OC(C)(C)C)CC2)nc1 [Example 234, tert-butyl 4-{[5-({[3-methyl-5-(quinoxalin-2-ylamino)-1,2-thiazol-4-yl]carbonyl}amino)pyridin-2-yl]amino}piperidine-1-carboxylate]
24 | < 5.00 | COC(=O)c1cc(NC(=O)c2c(C)nsc2Nc2cnc3ccccc3n2)cc(C(=O)OC)c1 [Example 237, dimethyl 5-({[3-methyl-5-(quinoxalin-2-ylamino)-1,2-thiazol-4-yl]carbonyl}amino)isophthalate]
25 | 5.08 | Cc1nsc(Nc2cncc(C(F)(F)F)n2)c1C(=O)Nc1ccc(C(=O)NC2CCN(CC(F)F)CC2)cc1 [Example 225, N-N-(4-{[1-(2,2-difluoroethyl)piperidin-4-yl]carbamoyl}phenyl)-3-methyl-5-{[6-(trifluoromethyl)pyrazin-2-yl]amino}-1,2-thiazole-4-carboxamide]
26 | 6.57 | Cc1nsc(Nc2cnc(C(F)(F)F)cn2)c1C(=O)Nc1ccc(OCC2CCCN(C(=O)OC(C)(C)C)C2)nc1 (centres unmarked) [Example 228, tert-butyl 3-{[(5-{[(3-methyl-5-{[5-(trifluoromethyl)pyrazin-2-yl]amino}-1,2-thiazol-4-yl)carbonyl]amino}pyridin-2-yl)oxy]methyl}piperidine-1-carboxylate]
27 | 5.21 | Cc1nsc(Nc2cncc(C(F)(F)F)n2)c1C(=O)Nc1ccc(C(=O)NC2CCN(C(=O)OC(C)(C)C)CC2)cc1 [Example 222, tert-butyl 4-[(4-{[(3-methyl-5-{[6-(trifluoromethyl)pyrazin-2-yl]amino}-1,2-thiazol-4-yl)carbonyl]amino}benzoyl)amino] piperidine-1-carboxylate]
28 | 5.34 | Cc1nsc(Nc2cncc(C(F)(F)F)n2)c1C(=O)Nc1ccc(C(=O)NCCN2CCCC(F)(F)C2)cc1 [Example 214, N-(4-{[2-(3,3-difluoropiperidin-1-yl)ethyl]carbamoyl}phenyl)-3-methyl-5-{[6-(trifluoromethyl)pyrazin-2-yl]amino}-1,2-thiazole-4-carboxamide]
29 | 5.30 | COC(=O)CCc1cccc(NC(=O)c2c(C)nsc2Nc2ccc(C#N)cn2)c1 [Example 176, methyl 3-{3-[({5-[(5-cyanopyridin-2-yl)amino]-3-methyl-1,2-thiazol-4-yl}carbonyl)amino]phenyl}propanoate]
30 | 5.48 | Cc1nsc(Nc2cnc3ccccc3n2)c1C(=O)Nc1cccc(NC(=O)OC(C)(C)C)c1 [Example 178, tert-butyl [3-({[3-methyl-5-(quinoxalin-2-ylamino)-1,2-thiazol-4-yl]carbonyl}amino)-phenyl]carbamate]
31 | < 5.00 | Cc1nsc(Nc2cc(C#N)ccn2)c1C(=O)Nc1ccc(OCCC(=O)OC(C)(C)C)nc1 [Example 200, tert-butyl 3-({5-[({5-[(4-cyanopyridin-2-yl)amino]-3-methyl-1,2-thiazol-4-yl}carbonyl)amino]pyridin-2-yl}oxy)propanoate]
32 | < 5.00 | Cc1nsc(Nc2cc(C#N)ccn2)c1C(=O)Nc1cccc(C(=O)NC2CC2)c1 [Example 175, 5-[(4-cyanopyridin-2-yl)amino]-N-[3-(cyclopropylcarbamoyl)phenyl]-3-methyl-1,2-thiazole-4-carboxamide]
